The values that follow are results of earlier work, collected in patent EP2143418A1, “Antiperspirant compositions” (Unilever PLC, priority 2008, dated 2010).

The test system of this data set is Staphylococcus epidermidis. Particulars: 80% or greater reduction in growth of inoculum, 16 to 24 hours at 37°C.
Regarding `CCO` [ethanol], the MIC (commonly the smallest concentration in the dilution series that meets the test's criterion for growth inhibition) is “greater than 1 mg.ml^-1”.
Regarding `CC(C)=CCCC(C)=CCCC(C)=CCO` [farnesol, 3,7,11-trimethyldodeca-2,6,10-trienol], the minimum inhibitory concentration (MIC) entry is “ca. 25 µg.ml^-1”.
Turning to `Oc1cc(Cl)ccc1Oc1ccc(Cl)cc1Cl` [triclosan, 2',4,4'-trichloro,2-hydroxy-diphenyl ether], the MIC is 0.01 to 10 µg/mL.
